Literature values in US20240316072A1, “THERAPEUTIC COMPOSITIONS, […] METHODS OF PREPARATION AND USE THEREOF” (Unique Flower LLC, priority 2023, published 2024).

Conditions: administration of β-Myrcene in the amount of 0.5 mg/g or more; generally understood

C=CC(=C)CCC=C(C)C [β-Myrcene]
effect in a subject: heavy, narcotic, “couch lock” effect
